Legend:
ERα = target: T1, ERα (Homo sapiens, UniProt P03372); experiment: ERα reporter (luciferase) transactivation assay in transfected HEK293 cells; type: cell-based; set-up: expressed in transfected cells; host or cells: HEK293; details: sample concentration 10 μM, 24 hours, mean of at least three independent transfections
T1 sequence (P03372 1-595): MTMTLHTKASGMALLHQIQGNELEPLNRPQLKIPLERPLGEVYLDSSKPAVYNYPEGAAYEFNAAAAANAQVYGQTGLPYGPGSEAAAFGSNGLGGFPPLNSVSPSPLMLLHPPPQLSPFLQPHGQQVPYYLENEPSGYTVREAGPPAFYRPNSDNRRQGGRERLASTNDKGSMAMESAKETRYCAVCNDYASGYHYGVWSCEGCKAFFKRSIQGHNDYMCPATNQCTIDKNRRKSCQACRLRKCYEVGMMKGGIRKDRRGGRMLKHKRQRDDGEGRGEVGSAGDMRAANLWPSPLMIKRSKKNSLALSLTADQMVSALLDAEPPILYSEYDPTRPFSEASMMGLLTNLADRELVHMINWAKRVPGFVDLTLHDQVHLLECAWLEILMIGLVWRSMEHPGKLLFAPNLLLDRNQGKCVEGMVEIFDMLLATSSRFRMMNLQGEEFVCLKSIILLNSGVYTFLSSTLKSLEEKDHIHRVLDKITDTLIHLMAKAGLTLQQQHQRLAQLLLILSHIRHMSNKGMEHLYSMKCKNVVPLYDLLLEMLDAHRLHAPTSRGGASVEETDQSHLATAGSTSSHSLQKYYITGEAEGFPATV
Experimental: (§1) Determination of the Estrogen Activity of the Compounds: Cell Culture, Transfection and Reporter Assays
(§2) All other reagents were of reagent grade from Sigma or Fluka. One day before transfection, HEK293 cells were seeded in 48-well plates (70×10^3 cells per well) in phenol-free Dulbecco's modified Eagle medium supplemented with 5% delipidated fetal bovine serum (Sigma) and antibiotics. After a medium change, the cells were transfected for 4 hours with 5 ng ERα or ERβ expression vector, 75 ng reporter plasmid pERE2TATA-LUC and 20 ng control plasmid pCMVβ by the calcium phosphate method. After transfection, the cells received fresh medium containing either vehicle (0.1% v/v) or test compound (10 μM). After 24 hours, the cells were washed, lysed and luciferase and β-galactosidase activities were determined from 20 μl of lysates with the Victor^2TM reader (PerkinElmer Wallac, Turku, Finland). […] The data are means ±SEM of at least three independent transfections.

ERβ = ERβ (Homo sapiens, UniProt Q92731); experiment: ERβ reporter (luciferase) transactivation assay in transfected HEK293 cells; type: cell-based; set-up: expressed in transfected cells; host or cells: HEK293; details: for ERβ receptor activation relative to 10 nM E2 corresponding 100: sample concentration 10 μM, 24 hours, mean of at least three independent transfections; for activation at 10 µM: HEK293, 24 h, read-out: ERβ receptor activation relative to 10 nM E2 corresponding 100, sample concentration 10 μM, mean of at least three independent transfections
ERβ, sequence (Q92731 whole entry): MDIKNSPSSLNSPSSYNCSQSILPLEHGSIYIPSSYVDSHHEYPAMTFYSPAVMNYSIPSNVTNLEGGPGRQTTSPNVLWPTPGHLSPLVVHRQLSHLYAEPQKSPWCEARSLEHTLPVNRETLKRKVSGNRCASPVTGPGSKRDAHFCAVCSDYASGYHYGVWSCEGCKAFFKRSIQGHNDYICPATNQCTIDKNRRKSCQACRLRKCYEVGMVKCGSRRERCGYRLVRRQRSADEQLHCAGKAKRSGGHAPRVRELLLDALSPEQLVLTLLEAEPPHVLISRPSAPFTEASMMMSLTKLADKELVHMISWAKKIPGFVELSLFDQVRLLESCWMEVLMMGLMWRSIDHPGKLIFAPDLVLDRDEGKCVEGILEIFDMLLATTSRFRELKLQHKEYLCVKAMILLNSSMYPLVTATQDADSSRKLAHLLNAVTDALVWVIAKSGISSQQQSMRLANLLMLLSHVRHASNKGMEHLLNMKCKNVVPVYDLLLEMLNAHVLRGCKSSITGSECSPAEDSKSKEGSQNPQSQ
Experimental: as §1, §2

For `COc1ccc(C2=NOC(Cc3ccccc3)C2)cc1` (single isomer, unassigned) [12a, 5-Benzyl-3-(4-methoxyphenyl)-4,5-dihydroisoxazole], the “ERα receptor activation relative to 10 nM E2 corresponding 100” value (ERα) was 55.2% and the “ERβ receptor activation relative to 10 nM E2 corresponding 100” value (ERβ) was 17.2%.
`COc1ccc(C2=NOC(Cc3ccccc3)C2)cc1` (single isomer, unassigned) [12b, 5-Benzyl-3-(4-methoxyphenyl)-4,5-dihydroisoxazole] was tested, and the “ERα receptor activation relative to 10 nM E2 corresponding 100” value (ERα) was 9.7% and the “ERβ receptor activation relative to 10 nM E2 corresponding 100” value (ERβ) was 7.9%.
In the case of `COc1ccccc1CC1CC(CCc2ccccc2)=NO1` (single isomer, unassigned) [64a, 5-(2-Methoxybenzyl)-3-phenethyl-4,5-dihydroisoxazole], the “ERα receptor activation relative to 10 nM E2 corresponding 100” value (ERα) is reported as 18.9% and the activation at 10 µM (ERβ) is reported as 9.5%.
In the case of `COc1ccccc1CC1CC(CCc2ccccc2)=NO1` (single isomer, unassigned) [64b, 5-(2-Methoxybenzyl)-3-phenethyl-4,5-dihydroisoxazole], the “ERα receptor activation relative to 10 nM E2 corresponding 100” value (ERα) is reported as 0.4% and the “ERβ receptor activation relative to 10 nM E2 corresponding 100” value (ERβ) is reported as 6.4%.
`COc1ccc(CC2CC(CCc3ccccc3)=NO2)cc1` (single isomer, unassigned) [65a, 5-(4-Methoxybenzyl)-3-phenethyl-4,5-dihydroisoxazole] was tested, and the “ERα receptor activation relative to 10 nM E2 corresponding 100” value (ERα) was 0.8% and the “ERβ receptor activation relative to 10 nM E2 corresponding 100” value (ERβ) was 10.6%.
In the case of `COc1ccc(CC2CC(CCc3ccccc3)=NO2)cc1` (single isomer, unassigned) [65b, 5-(4-Methoxybenzyl)-3-phenethyl-4,5-dihydroisoxazole], the “ERα receptor activation relative to 10 nM E2 corresponding 100” value (ERα) is reported as 16.1% and the activation at 10 µM (ERβ) is reported as 13.2%.
In the case of `Fc1ccc(CC2CC(CCc3ccccc3)=NO2)cc1` (single isomer, unassigned) [66a, 5-(4-fluorobenzyl)-3-phenethyl-4,5-dihydroisoxazole], the “ERα receptor activation relative to 10 nM E2 corresponding 100” value (ERα) is reported as 99.2% and the activation at 10 µM (ERβ) is reported as 11.2%.
`Fc1ccc(CC2CC(CCc3ccccc3)=NO2)cc1` (single isomer, unassigned) [66b, 5-(4-fluorobenzyl)-3-phenethyl-4,5-dihydroisoxazole] was tested, and the “ERα receptor activation relative to 10 nM E2 corresponding 100” value (ERα) was 28.9% and the “ERβ receptor activation relative to 10 nM E2 corresponding 100” value (ERβ) was 7.4%.
`c1ccc(CCC2=NOC(Cc3cccc4ccccc34)C2)cc1` (single isomer, unassigned) [67a, 5-naphthalen-1-yl-methyl-3-phenethyl-4,5-dihydroisoxazole] was tested, and the “ERα receptor activation relative to 10 nM E2 corresponding 100” value (ERα) was 34.1% and the activation at 10 µM (ERβ) was 10.5%.
`c1ccc(CCC2=NOC(Cc3cccc4ccccc34)C2)cc1` (single isomer, unassigned) [67b, 5-naphthalen-1-yl-methyl-3-phenethyl-4,5-dihydroisoxazole] was tested, and the “ERα receptor activation relative to 10 nM E2 corresponding 100” value (ERα) was 17.2% and the “ERβ receptor activation relative to 10 nM E2 corresponding 100” value (ERβ) was 6.5%.
`c1ccc(CCC2=NOC(Cc3ccc4ccccc4c3)C2)cc1` (single isomer, unassigned) [68a, 5-naphthalen-2-yl-methyl-3-phenethyl-4,5-dihydroisoxazole] was tested, and the “ERα receptor activation relative to 10 nM E2 corresponding 100” value (ERα) was 22.3% and the “ERβ receptor activation relative to 10 nM E2 corresponding 100” value (ERβ) was 8.2%.
With `c1ccc(CCC2=NOC(Cc3ccc4ccccc4c3)C2)cc1` (single isomer, unassigned) [68b, 5-naphthalen-2-yl-methyl-3-phenethyl-4,5-dihydroisoxazole] the “ERα receptor activation relative to 10 nM E2 corresponding 100” value (ERα) was 13.0% and the “ERβ receptor activation relative to 10 nM E2 corresponding 100” value (ERβ) was 3.8%.
With `CC1(c2ccccc2)CC(CCc2ccccc2)=NO1` (single isomer, unassigned) [71a, 5-Methyl-3-phenethyl-5-phenyl-4,5-dihydroisoxazole] the “ERα receptor activation relative to 10 nM E2 corresponding 100” value (ERα) was 8.1% and the “ERβ receptor activation relative to 10 nM E2 corresponding 100” value (ERβ) was −20.0%.
`CC1(c2ccccc2)CC(CCc2ccccc2)=NO1` (single isomer, unassigned) [71b, 5-Methyl-3-phenethyl-5-phenyl-4,5-dihydroisoxazole] was tested, and the “ERα receptor activation relative to 10 nM E2 corresponding 100” value (ERα) was 10.9% and the “ERβ receptor activation relative to 10 nM E2 corresponding 100” value (ERβ) was −7.3%.
In the case of `COc1ccc(CCCC2=NOC(c3ccccc3)C2)cc1` (single isomer, unassigned) [72a, 3-[3-(4-Methoxy-phenyl)-propyl]-5-phenyl-4,5-dihydroisoxazole], the “ERα receptor activation relative to 10 nM E2 corresponding 100” value (ERα) is reported as 9.2% and the “ERβ receptor activation relative to 10 nM E2 corresponding 100” value (ERβ) is reported as −5.8%.
For `COc1ccc(CCCC2=NOC(c3ccccc3)C2)cc1` (single isomer, unassigned) [72b, 3-[3-(4-Methoxy-phenyl)-propyl]-5-phenyl-4,5-dihydroisoxazole], the “ERα receptor activation relative to 10 nM E2 corresponding 100” value (ERα) was 1.2% and the “ERβ receptor activation relative to 10 nM E2 corresponding 100” value (ERβ) was −9.0%.
`Oc1ccc(C2=NOC(Cc3ccccc3)C2)cc1` (single isomer, unassigned) [80a, 5-Benzyl-3-(4-hydroxy-phenyl)-4,5-dihydro-isoxazole] was tested, and the “ERα receptor activation relative to 10 nM E2 corresponding 100” value (ERα) was 52.0% and the activation at 10 µM (ERβ) was 28.5%.
For `Oc1ccc(C2=NOC(Cc3ccccc3)C2)cc1` (single isomer, unassigned) [80b, 5-Benzyl-3-(4-hydroxy-phenyl)-4,5-dihydro-isoxazole], the “ERα receptor activation relative to 10 nM E2 corresponding 100” value (ERα) was 58.6% and the “ERβ receptor activation relative to 10 nM E2 corresponding 100” value (ERβ) was 17.7%.
For `Oc1ccc(CC2=NOC(c3cccc(O)c3)C2)cc1` (single isomer, unassigned) [83a, 3-(4-Hydroxy-benzyl)-5-(3-hydroxy-phenyl)-4,5-dihydro-isoxazole], the “ERα receptor activation relative to 10 nM E2 corresponding 100” value (ERα) was 30.8% and the activation at 10 µM (ERβ) was 33.2%.
With `Oc1ccc(CC2=NOC(c3cccc(O)c3)C2)cc1` (single isomer, unassigned) [83b, 3-(4-Hydroxy-benzyl)-5-(3-hydroxy-phenyl)-4,5-dihydro-isoxazole] the “ERα receptor activation relative to 10 nM E2 corresponding 100” value (ERα) was 3.6% and the “ERβ receptor activation relative to 10 nM E2 corresponding 100” value (ERβ) was 41.3%.
`Oc1ccc(CCCC2=NOC(c3cccc(O)c3)C2)cc1` (single isomer, unassigned) [89a, 3-[3-(4-Hydroxy-phenyl)-propyl]-5-(3-hydroxy-phenyl)-4,5-dihydro-isoxazole] was tested, and the “ERα receptor activation relative to 10 nM E2 corresponding 100” value (ERα) was 32.9% and the activation at 10 µM (ERβ) was 12%.
For `Oc1ccc(CCCC2=NOC(c3cccc(O)c3)C2)cc1` (single isomer, unassigned) [89b, 3-[3-(4-Hydroxy-phenyl)-propyl]-5-(3-hydroxy-phenyl)-4,5-dihydro-isoxazole], the “ERα receptor activation relative to 10 nM E2 corresponding 100” value (ERα) was 27.6% and the “ERβ receptor activation relative to 10 nM E2 corresponding 100” value (ERβ) was 7.2%.
In the case of `Oc1ccccc1CCC1=NOC(Cc2ccccc2)C1` (single isomer, unassigned) [91a, 5-Benzyl-3-[2-(2-hydroxy-phenyl)-ethyl]-4,5-dihydro-isoxazole], the “ERα receptor activation relative to 10 nM E2 corresponding 100” value (ERα) is reported as 104.8% and the activation at 10 µM (ERβ) is reported as 19.2%.
`Oc1ccccc1CCC1=NOC(Cc2ccccc2)C1` (single isomer, unassigned) [91b, 5-Benzyl-3-[2-(2-hydroxy-phenyl)-ethyl]-4,5-dihydro-isoxazole] was tested, and the “ERα receptor activation relative to 10 nM E2 corresponding 100” value (ERα) was 39.7% and the “ERβ receptor activation relative to 10 nM E2 corresponding 100” value (ERβ) was 30.5%.
For `Oc1cccc(CCC2=NOC(Cc3ccccc3)C2)c1` (single isomer, unassigned) [92a, 5-Benzyl-3-[2-(3-hydroxy-phenyl)-ethyl]-4,5-dihydro-isoxazole], the “ERα receptor activation relative to 10 nM E2 corresponding 100” value (ERα) was 19.2% and the “ERβ receptor activation relative to 10 nM E2 corresponding 100” value (ERβ) was 6.7%.
`Oc1cccc(CCC2=NOC(Cc3ccccc3)C2)c1` (single isomer, unassigned) [92b, 5-Benzyl-3-[2-(3-hydroxy-phenyl)-ethyl]-4,5-dihydro-isoxazole] was tested, and the “ERα receptor activation relative to 10 nM E2 corresponding 100” value (ERα) was 15.7% and the “ERβ receptor activation relative to 10 nM E2 corresponding 100” value (ERβ) was −2.5%.
